# Results from ChEMBL document CHEMBL1125352, “Synthesis of biologically active taxol analogues with modified phenylisoserine side chains” (1992).
# Key:
# Format in all cases: functional
# B16 [1] = test: Cytotoxicity against B16 melanoma cell line.62% inhibition at 42 uM.; settings: Mus musculus, read-out: ED50 (the source's name)
# Tubulin (Bos taurus) [2] = target: T1, Tubulin (Bos taurus) (UniProt Q6B856+Q862L2+Q862F3); test: Concentration to stimulate the assembly of tubulin into microtubules at a dose of […]
# [3] = Ratio of ED50 of taxol to ED50 from tubulin binding assay
# [4] = Ratio of ED50 of taxol to ED50 from cytotoxicity against B16 melanoma cell lines
# B16 [5] = test: Cytotoxicity against B16 melanoma cell line.40% inhibition at 1 uM; settings: Mus musculus, read-out: ED50 (the source's name)
# B16 [6] = test: Cytotoxicity against B16 melanoma cell line.; settings: Mus musculus, read-out: ED50 (the source's name)
# Tubulin (Bos taurus) [7] = target: T1, Tubulin (Bos taurus); test: Concentration to stimulate the assembly of tubulin into microtubules.
Structure (SMILES),EC50 (B16 [1]) [µM],ED50 (Tubulin (Bos taurus) [2]) [µM],Ratio [3],Ratio [4],EC50 (B16 [5]) [nM],EC50 (B16 [6]) [nM],ED50 (Tubulin (Bos taurus) [7]) [µM]
O=C(N[C@@H](c1ccccc1)[C@@H](O)C(=O)O)c1ccccc1 (relative stereo),> 10,> 10,> 14,>360,–,–,–
CC(=O)O[C@H]1C(=O)[C@@]2(C)[C@H]([C@H](OC(=O)c3ccccc3)[C@]3(O)C[C@H](O)C(C)=C1C3(C)C)[C@]1(OC(C)=O)CO[C@@H]1C[C@@H]2O [BACCATIN III],–,> 10,> 14,>36,> 1000,–,–
CC(=O)O[C@H]1C(=O)[C@@]2(C)[C@H]([C@H](OC(=O)c3ccccc3)[C@]3(O)C[C@H](OC(=O)[C@H](O)[C@@H](NC(=O)c4ccccc4)c4ccccc4)C(C)=C1C3(C)C)[C@]1(OC(C)=O)CO[C@@H]1C[C@@H]2O [PACLITAXEL],–,–,1,1,–,28,0.7
CC(=O)O[C@H]1C(=O)[C@@]2(C)[C@H]([C@H](OC(=O)c3ccccc3)[C@]3(O)C[C@H](OC(=O)[C@H](O)[C@@H](NC(=O)c4ccccc4)c4ccc(Cl)cc4)C(C)=C1C3(C)C)[C@]1(OC(C)=O)CO[C@@H]1C[C@@H]2O,–,–,1.9,2.2,–,61,1.3
CC(=O)O[C@H]1C(=O)[C@@]2(C)[C@H]([C@H](OC(=O)c3ccccc3)[C@]3(O)C[C@H](OC(=O)[C@H](O)[C@@H](NC(=O)c4ccc(Cl)cc4)c4ccccc4)C(C)=C1C3(C)C)[C@]1(OC(C)=O)CO[C@@H]1C[C@@H]2O,–,–,2.4,1.5,–,43,1.7
